Data taken from patent US11655235B2, “Pyrrolidine and piperidine compounds” (YUHAN CORPORATION, priority 2019, dated 2023).

Key:
Recombinant human FAP = molecular target: T1, Recombinant human FAP (Homo sapiens, UniProt Q12884); experiment: FAP inhibition, fluorogenic substrate Z-Gly-Pro-AMC; type: biochemical; conditions: for inhibition at 1 µM: read-out: hFAP inhibition % at 1 μM
T1 construct: purchased R&D systems
T1 sequence (Q12884 1-760): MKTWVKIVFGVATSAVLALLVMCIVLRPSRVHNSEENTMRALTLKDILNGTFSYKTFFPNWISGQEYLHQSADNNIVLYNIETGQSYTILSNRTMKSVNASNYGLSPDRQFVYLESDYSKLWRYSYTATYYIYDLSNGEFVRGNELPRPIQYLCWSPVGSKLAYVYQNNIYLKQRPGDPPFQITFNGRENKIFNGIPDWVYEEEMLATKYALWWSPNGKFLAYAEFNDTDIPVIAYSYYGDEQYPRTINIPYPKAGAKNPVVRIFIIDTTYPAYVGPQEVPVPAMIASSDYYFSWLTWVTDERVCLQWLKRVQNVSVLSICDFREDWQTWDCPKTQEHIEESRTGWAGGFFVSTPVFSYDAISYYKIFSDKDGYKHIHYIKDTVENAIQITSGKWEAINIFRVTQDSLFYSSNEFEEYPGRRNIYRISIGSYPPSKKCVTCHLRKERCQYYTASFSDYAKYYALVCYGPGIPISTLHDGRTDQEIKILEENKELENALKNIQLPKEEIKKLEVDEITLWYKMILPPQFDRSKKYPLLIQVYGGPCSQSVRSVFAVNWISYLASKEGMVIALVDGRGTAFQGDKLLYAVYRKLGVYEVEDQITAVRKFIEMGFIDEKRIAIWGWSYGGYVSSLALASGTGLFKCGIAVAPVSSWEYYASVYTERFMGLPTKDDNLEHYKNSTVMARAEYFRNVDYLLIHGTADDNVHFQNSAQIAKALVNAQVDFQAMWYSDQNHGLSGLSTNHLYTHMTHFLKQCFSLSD
How it was run: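 Eight-point compound dilutions (≤0.1% DMSO) were incubated at 25° C with 10 ng recombinant human FAP in Tris pH 7.5/1 M NaCl/BSA buffer and Z-Gly-Pro-AMC. Inhibition was taken as % drop in fluorescence rate (380/460 nm) against uninhibited control; IC50 came from a four-parameter logistic fit.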

DPP4 = DPP4 (Homo sapiens, UniProt P27487); experiment: DPP4 inhibition, fluorogenic substrate H-Gly-Pro-AMC; type: biochemical; set-up: purchased R&D Systems; conditions: for inhibition at 1 µM: read-out: hDPP4 inhibition % at 1 μM; for IC50: recombinant human DPP4
DPP4, sequence (P27487 whole entry): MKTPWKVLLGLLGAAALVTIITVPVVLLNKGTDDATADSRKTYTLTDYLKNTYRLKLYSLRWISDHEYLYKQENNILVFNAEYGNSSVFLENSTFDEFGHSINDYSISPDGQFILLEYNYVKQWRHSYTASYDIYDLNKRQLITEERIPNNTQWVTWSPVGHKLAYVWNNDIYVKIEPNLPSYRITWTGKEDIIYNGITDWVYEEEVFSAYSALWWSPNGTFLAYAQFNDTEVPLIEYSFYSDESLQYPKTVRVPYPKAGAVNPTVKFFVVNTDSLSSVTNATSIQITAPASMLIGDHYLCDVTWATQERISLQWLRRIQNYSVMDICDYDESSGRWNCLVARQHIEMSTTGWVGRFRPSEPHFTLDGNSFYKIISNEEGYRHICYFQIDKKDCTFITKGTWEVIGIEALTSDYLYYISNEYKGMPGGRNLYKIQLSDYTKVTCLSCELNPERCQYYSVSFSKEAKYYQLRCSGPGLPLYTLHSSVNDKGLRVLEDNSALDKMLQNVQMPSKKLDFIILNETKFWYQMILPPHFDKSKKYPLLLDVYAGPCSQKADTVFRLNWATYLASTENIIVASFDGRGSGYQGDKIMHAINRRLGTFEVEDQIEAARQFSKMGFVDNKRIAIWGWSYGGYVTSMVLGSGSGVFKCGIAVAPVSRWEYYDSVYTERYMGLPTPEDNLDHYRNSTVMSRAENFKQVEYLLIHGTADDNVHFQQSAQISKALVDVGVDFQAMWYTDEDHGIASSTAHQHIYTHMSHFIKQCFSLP

[1] = 25° C., Z-Gly-Pro-AMC substrate
[2] = recombinant human FAP, substrate Z-Gly-Pro-AMC

Row | SMILES | IC50 (Recombinant human FAP; [1]) [nM] | inhibition at 1 µM (DPP4) [%] | hDPP4 inhibition % at 1 μM (DPP4) | further results
1 | N#C[C@@H]1CCCN1C(=O)CN1CC[C@H](NC(=O)c2cc3ccccc3o2)C1 [Example 40, N—((S)-1-(2-((S)-2-cyanopyrrolidin-1-yl)-2-oxoethyl)pyrrolidin-3-yl)benzofuran-2-carboxamide] | 38.3 | 3.2 |  | 
2 | N#C[C@@H]1CCCN1C(=O)CN1CC[C@H](Oc2cc(-c3ccc(Br)cc3)no2)C1 [Example 102, (S)-1-(2-((S)-3-((3-(4-bromophenyl)isoxazol-5-yl)oxy)pyrrolidin-1-yl)acetyl)pyrrolidine-2-carbonitrile] |  | 6.2 |  | inhibition at 1 µM (Recombinant human FAP): 52.4%
3 | N#C[C@@H]1CCCN1C(=O)CN1CC[C@H](NC(=O)c2ccc3occc3c2)C1 [Example 56, N—((S)-1-(2-((S)-2-cyanopyrrolidin-1-yl)-2-oxoethyl)pyrrolidin-3-yl)benzofuran-5-carboxamide] | 45.2 | 2.4 |  | 
4 | N#C[C@@H]1CCCN1C(=O)CN1CC[C@H](NC(=O)c2coc3c(F)cccc23)C1 [Example 50, N—((S)-1-(2-((S)-2-cyanopyrrolidin-1-yl)-2-oxoethyl)pyrrolidin-3-yl)-7-fluorobenzofuran-3-carboxamide] | 16.4 |  | No inhibition** | 
5 | N#C[C@@H]1CCCN1C(=O)CN1CC[C@@H](Nc2cccc3ccsc23)C1 [Example 25, (S)-1-(2-((R)-3-(benzo[b]thiophen-7-ylamino)pyrrolidin-1-yl)acetyl)pyrrolidine-2-carbonitrile] | 57.6 | 2.9 |  | 
6 | N#C[C@@H]1CCCN1C(=O)CN1CC[C@H](NC(=O)c2nccc3ccccc23)C1 [Example 35, N—((S)-1-(2-((S)-2-cyanopyrrolidin-1-yl)-2-oxoethyl)pyrrolidin-3-yl)isoquinoline-1-carboxamide] |  |  | No inhibition** | inhibition at 1 µM (Recombinant human FAP): 76.1%
7 | N#C[C@@H]1CCCN1C(=O)CN1CC[C@H](Oc2ccc3ncnc(Cl)c3c2)C1 [Example 74, (S)-1-(2-((S)-3-((4-chloroquinazolin-6-yl)oxy)pyrrolidin-1-yl)acetyl)pyrrolidine-2-carbonitrile] |  |  | No inhibition** | inhibition at 1 µM (Recombinant human FAP): 92.3%
8 | N#C[C@@H]1CCCN1C(=O)CN1CC[C@H](Oc2ccnc3cc(C(F)(F)F)ccc23)C1 [Example 94, (S)-1-(2-((S)-3-((7-(trifluoromethyl)quinolin-4-yl)oxy)pyrrolidin-1-yl)acetyl)pyrrolidine-2-carbonitrile] | 63.3 | 6.9 |  | 
9 | COc1cccc2c(C(=O)N[C@H]3CCN(CC(=O)N4CCC[C@H]4C#N)C3)coc12 [Example 47, N—((S)-1-(2-((S)-2-cyanopyrrolidin-1-yl)-2-oxoethyl)pyrrolidin-3-yl)-7-methoxybenzofuran-3-carboxamide] | 18.8 | 3.7 |  | 
10 | CN(c1ccc2ccccc2n1)C1CCN(CC(=O)N2CCC[C@H]2C#N)CC1 [Example 307, (2S)-1-[2-[4-[methyl(2-quinolyl)amino]-1-piperidyl]acetyl]pyrrolidine-2-carbonitrile] |  |  |  | IC50 (Recombinant human FAP; [2]): 47.1 nM; IC50 (DPP4): > 10 µM
11 | CN(c1ccnc2ccccc12)C1CCN(CC(=O)N2CCC[C@H]2C#N)CC1 [Example 308, (2S)-1-[2-[4-[methyl(4-quinolyl)amino]-1-piperidyl]acetyl]pyrrolidine-2-carbonitrile] |  |  |  | IC50 (Recombinant human FAP; [2]): 96.8 nM; IC50 (DPP4): > 10 µM
12 | N#C[C@@H]1C[C@@H]2C[C@@H]2N1C(=O)CN1CCC(Nc2ccnc3ccccc23)CC1 [Example 112, (1S,3S,5S)-2-(2-(4-(quinolin-4-ylamino)piperidin-1-yl)acetyl)-2-azabicyclo[3.1.0]hexane-3-carbonitrile] | 18.8 |  | No inhibition** | 
13 | N#C[C@@H]1CCCN1C(=O)CN1CC[C@H](Oc2ccccc2C(=O)Nc2ccccc2)C1 [Example 99, 2-(((S)-1-(2-((S)-2-cyanopyrrolidin-1-yl)-2-oxoethyl)pyrrolidin-3-yl)oxy)-N-phenylbenzamide] |  | 10.9 |  | inhibition at 1 µM (Recombinant human FAP): 18.2%
14 | N#C[C@@H]1CCCN1C(=O)CN1CC[C@H](Oc2cccc(Oc3ccccc3)c2)C1 [Example 88, (S)-1-(2-((S)-3-(3-phenoxyphenoxy)pyrrolidin-1-yl)acetyl)pyrrolidine-2-carbonitrile] |  | 6.1 |  | inhibition at 1 µM (Recombinant human FAP): 57.9%
15 | N#C[C@@H]1C[C@@H]2C[C@@H]2N1C(=O)CN1CC[C@H](Nc2cncc3ccoc23)C1 [Example 26, (1S,3S,5S)-2-(2-((S)-3-(furo[3,2-c]pyridin-7-ylamino)pyrrolidin-1-yl)acetyl)-2-azabicyclo[3.1.0]hexane-3-carbonitrile] |  | 0.4 |  | inhibition at 1 µM (Recombinant human FAP): 93.7%
16 | Cc1ccc2cccc(O[C@H]3CCN(CC(=O)N4CCC[C@H]4C#N)C3)c2n1 [Example 78, (S)-1-(2-((S)-3-((2-methylquinolin-8-yl)oxy)pyrrolidin-1-yl)acetyl)pyrrolidine-2-carbonitrile] | 22.5 |  | No inhibition** | 
17 | N#C[C@@H]1CCCN1C(=O)CN1CC[C@H](NC(=O)c2cccc3ncccc23)C1 [Example 32, N—((S)-1-(2-((S)-2-cyanopyrrolidin-1-yl)-2-oxoethyl)pyrrolidin-3-yl)quinoline-5-carboxamide] | 70.4 | 2 |  | 
18 | N#C[C@@H]1CCCN1C(=O)CN1CC[C@H](C(=O)Nc2ccnc3ccccc23)C1 [Example 4, (S)-1-(2-((S)-2-cyanopyrrolidin-1-yl)-2-oxoethyl)-N-(quinolin-4-yl)pyrrolidine-3-carboxamide] | 99.2 | 15.1 |  | 
19 | Cc1ccc2c(C(=O)N[C@H]3CCN(CC(=O)N4CCC[C@H]4C#N)C3)coc2c1 [Example 53, N—((S)-1-(2-((S)-2-cyanopyrrolidin-1-yl)-2-oxoethyl)pyrrolidin-3-yl)-6-methylbenzofuran-3-carboxamide] | 17.7 | 1.3 |  | 
20 | N#C[C@@H]1CCCN1C(=O)CN1CC[C@H](NC(=O)c2ccnc3ccccc23)C1 [Example 30, N—((S)-1-(2-((S)-2-cyanopyrrolidin-1-yl)-2-oxoethyl)pyrrolidin-3-yl)quinoline-4-carboxamide] | 145 |  | No inhibition** | 
21 | N#C[C@@H]1CCCN1C(=O)CN1CC[C@H](Oc2ccc3ncccc3c2)C1 [Example 63, (S)-1-(2-((S)-3-(quinolin-6-yloxy)pyrrolidin-1-yl)acetyl)pyrrolidine-2-carbonitrile] | 130 |  | No inhibition** | 
22 | N#C[C@@H]1CCCN1C(=O)CN1CC[C@H](Oc2ccc(Oc3ccccc3)cc2)C1 [Example 87, (S)-1-(2-((S)-3-(4-phenoxyphenoxy)pyrrolidin-1-yl)acetyl)pyrrolidine-2-carbonitrile] |  | 6.9 |  | inhibition at 1 µM (Recombinant human FAP): 51.9%
23 | N#C[C@@H]1CCCN1C(=O)CN1CC[C@H](Oc2cccc3cc4ccccc4nc23)C1 [Example 96, (S)-1-(2-((S)-3-(acridin-4-yloxy)pyrrolidin-1-yl)acetyl)pyrrolidine-2-carbonitrile] | 270 | 11.5 |  | 
24 | N#C[C@@H]1CCCN1C(=O)CN1CC[C@H](Oc2nccc3scc(Br)c23)C1 [Example 70, (S)-1-(2-((S)-3-((3-bromothieno[3,2-c]pyridin-4-yl)oxy)pyrrolidin-1-yl)acetyl)pyrrolidine-2-carbonitrile] | 31.9 | 22.6 |  | 
25 | N#C[C@@H]1CCCN1C(=O)CN1CC[C@H](NC(=O)c2cccc3occc23)C1 [Example 55, N—((S)-1-(2-((S)-2-cyanopyrrolidin-1-yl)-2-oxoethyl)pyrrolidin-3-yl)benzofuran-4-carboxamide] | 20 | 1.1 |  | 
26 | N#C[C@@H]1CCCN1C(=O)CN1CC[C@H](Oc2ccc(Cl)c3ccccc23)C1 [Example 71, (S)-1-(2-((S)-3-((4-chloronaphthalen-1-yl)oxy)pyrrolidin-1-yl)acetyl)pyrrolidine-2-carbonitrile] | 42.6 |  | No inhibition** | 
27 | Cc1cccc2c(C(=O)N[C@H]3CCN(CC(=O)N4CCC[C@H]4C#N)C3)coc12 [Example 45, N—((S)-1-(2-((S)-2-cyanopyrrolidin-1-yl)-2-oxoethyl)pyrrolidin-3-yl)-7-methylbenzofuran-3-carboxamide] | 30.1 | 1.2 |  | 
28 | N#C[C@@H]1CCCN1C(=O)CN1CCC(Oc2ccc3ncccc3c2)CC1 [Example 120, (S)-1-(2-(4-(quinolin-6-yloxy)piperidin-1-yl)acetyl)pyrrolidine-2-carbonitrile] | 11.8 |  | No inhibition** | 
